Results from US20040152694A1, “Methods and compositions for treating inflammatory disorders of the airways” (priority 2003, published 2004).
Read-outs that look alike come from different tables or passages of the source.

Tests used:
[1] = system: Rat aortic smooth muscle cells (primary); assay: Growth factor-induced proliferation of smooth muscle cells, 3H-thymidine incorporation, RASMC; format: cell-based
Protocol: (§1) Primary and permanently cultured rat aortic smooth muscle cells were made senescent by serum deprivation (0.1% FCS, 48 hours). Proliferation was induced by re-addition of serum (10%) containing the necessary growth factors and the effect of different concentrations of the AMPA receptor modulators on the proliferation of the cells was determined by measuring ^3H-thymidine incorporation.

[2] = system: trachea of ovalbumin-sensitized and challenged BN-rats; assay: Tracheal contraction to acetylcholine ex vivo after antigen challenge, local (intratracheal) treatment with GYKI-53773; format: in vivo, rat
Protocol: (§2) Rats were actively sensitized to ovalbumin (OA) by a subcutaneous injection of 0.5 ml of OA/Al(OH3) gel mixture (2 mg OA+10 g Al(OH3)/100 ml saline) on day 1 with subsequent subcutaneous injections (10 mg OA+10 g Al(OH3)/100 ml saline) given on days 14 and 21. On day 28, animals received GYKI-52466, GYKI-47261 or GYKI-53773 compound orally (0.3 mg/kg or 3.0 mg/kg) 2 hours before antigen challenge. Antigen challenge was performed by inhalation of nebulised ovalbumin (1% antigen solution administered in a TSE inhalation system for 1 hour). Animals were sacrificed 48 hours post antigen challenge wherein the tracheas were removed to an organ bath. Dissected tracheas were allowed to equilibrate for 30 minutes before measuring tracheal spasmogenic response curves to acetylcholine (Ach).
The procedures of Example 2 were followed in order to compare the effects of antigen exposure and local (intratracheal) GYKI 53773 treatments on Ach-induced tracheal contractions in allergen sensitized and challenged rats.

[3] = system: isolated guinea pig trachea; assay: Endothelin-1-induced contraction of isolated guinea pig trachea in vitro; settings: for Emax at 10 µM / Emax at 30 µM: Cavia porcellus, 25 min, read-out: Contraction %: percent of maximal response to 4.5 μM histamine
Protocol: In order to measure the effect of GYKI 52466 and 53773 (talampanel) on endothelin-1-induced contractions in isolated guinea pig trachea the following procedures were followed. The tracheae of male Dunkin-Hartley guinea pigs (350-450 g) were removed; helical strips were prepared and mounted in an organ bath. After equilibration, the strips were contracted with endothelin-1 and when contraction had reached the plateau, different concentrations of GYKI-52466, 53773 or the suitable vehicles were added into the chambers. Changes in tensions were expressed as the percentage of the maximal response to 4.5 μM histamine measured at the beginning of the experiment.

[4] = system: A7r5 established smooth muscle cell line (ATCC); assay: Growth factor-induced proliferation of smooth muscle cells, 3H-thymidine incorporation, A7r5; format: cell-based, rat
Protocol: as §1

[5] = system: airways epithelial cells of antigen sensitized BN rats; assay: Allergen-induced mucus production of airways epithelial cells, PAS staining; format: in vivo, rat; settings: mean ± SEM
Protocol: Antigen sensitized BN rats were pretreated orally with 0.3, 3 and 30 mg/kg GYKI-52466 or GYKI-53773 (Talampanel) 2 hours prior to antigen challenge using a similar protocol that was described in Example 2. Lungs were isolated 48 hours subsequent to antigen exposure; samples were fixed in phosphate-buffered 8% formalin. Specimens were then routinely processed for histochemistry. In the periodic acid-Schiff stained (PAS) and haematoxylin-eosin counterstained, 5 μm thick sections, all epithelial cells of each airway segments were counted in the whole preparations at a magnification of 400×. The number of PAS(+) [mucus-producing] epithelial cells are expressed as the ratio of all epithelial cells.

[6] = system: trachea of ovalbumin-sensitized and challenged BN-rats; assay: Tracheal contraction to acetylcholine ex vivo after antigen challenge, oral pretreatment; format: in vivo, rat; settings: for MAX: Contraction at maximal Ach concentration relative to control / ED50: −log M acetylcholine (Ach) causing 50% contraction relative to control: 3.0 mg/kg orally 2 hours before antigen challenge, mean ± SEM; for MAX: Contraction at maximal Ach concentration relative to control: control = 100; for ED50: −log M acetylcholine (Ach) causing 50% contraction relative to control: trachea 48 h post challenge; for Tracheal hyper-reactivity to acetylcholine after ovalbumin challenge: dose of 3.0 mg/kg, oral
Protocol: as §2

AMPA receptors = assay: Ventilated, perfused rat lung: AMPA-induced lung injury
Protocol: The presence/function of AMPA receptors in the lung of experimental animals was investigated in the same model (ventilated perfused rat lung) that was applied for the examination of NMDA-receptors by Said et al., (Proc Natl. Acad. Sci. (USA) 93:4688 (1996). The lung of anesthetized SPRD rats were ventilated and were in situ perfused with a constant flow of Krebs solution. L-arginine, AMPA and AMPA-antagonist were added directly to the perfusate as described by Said et al, supra. As it is shown in Table 2, activation of the AMPA receptors triggered an acute edematous lung injury manifested by the significant increase in airway pressure (PAW) pulmonary artery pressure (PAP) and the ratio of wet and dry weight of the lung after the treatment.

[7] = system: trachea of ovalbumin-sensitized and challenged BN-rats; assay: Tracheal contraction to acetylcholine ex vivo after antigen challenge, local (intratracheal) NBQX; format: in vivo, rat; settings: for ED50: −log M acetylcholine (Ach) causing 50% contraction relative to control / MAX: Contraction at maximal Ach concentration relative to control: local
[8] = system: trachea of ovalbumin-sensitized and challenged BN-rats; assay: Tracheal contraction to acetylcholine ex vivo after antigen challenge, systemic (intraperitoneal) NBQX; format: in vivo, rat
Protocol: as §2
The procedures of Example 2 were followed in order to compare the effects of antigen exposure and systemic (intraperitoneal) NBQX treatments on Ach-induced tracheal contractions in allergen sensitized and challenged rats.

[9] = second dose column (dose number not given)
[10] = third dose column (dose number not given)
[11] = 0.3 mg/kg orally 2 hours prior to antigen challenge, lungs 48 hours after
[12] = 3 mg/kg orally 2 hours prior to antigen challenge
[13] = 30 mg/kg orally 2 hours prior to antigen challenge
[14] = AMPA (200 μM) alone in perfusate, SPRD rats
[15] = third (highest) dose column (dose number not given)

## CC(=O)N1N=C(c2ccc(N)cc2)c2cc3c(cc2CC1C)OCO3 (single isomer, unassigned; (-)) [GYKI-53773, (−)-1-(4-Aminophenyl)-3-acetyl-4-methyl-3,4-dihydro-7,8-methylenedioxy-5H-2,3-benzodiazepine]
[1]; 0.03 μg/ml
  Inhibition (% of control) RASMC: 26 % of control
[1]; 0.3 μg/ml
  Inhibition (% of control) RASMC: 59 % of control
[1]; 3.0 μg/ml
  Inhibition (% of control) RASMC: 70 % of control
[2]; 1 μg/kg, single administration
  Allergen-induced airways hyperresponsiveness: strongly reduced the allergen-induced airways hyperresponsiveness
[2]; first dose column (dose number not given), challenged 7.22, control 5.89
  ED50: −log M acetylcholine (Ach) causing 50% contraction relative to control: 5.80 ± 0.47 −log M
[2]; first dose column (dose number not given), challenged 312, control 100
  MAX: Contraction at maximal Ach concentration relative to control: 202 ± 66
[2]; [9]
  ED50: −log M acetylcholine (Ach) causing 50% contraction relative to control: 5.73 ± 0.39 −log M
  MAX: Contraction at maximal Ach concentration relative to control: 113 ± 19
[2]; [10]
  ED50: −log M acetylcholine (Ach) causing 50% contraction relative to control: 5.68 ± 0.55 −log M
  MAX: Contraction at maximal Ach concentration relative to control: 129 ± 30
[3]
  Contraction caused by ET-1 in the isolated guinea pig trachea: dose-dependently inhibit the contraction
[3]; 10 μM, 25 minutes after addition, vehicle 84 ± 8, Mean ± SD (n)
  Emax at 10 µM: 43 ± 9%
[3]; 30 μM, 25 minutes after addition, vehicle 66 ± 8, Mean ± SD (n)
  Emax at 30 µM: 7 ± 4%
[4]; 0.03 μg/ml
  Inhibition (% of control) A7r5: 21 % of control
[4]; 0.3 μg/ml
  Inhibition (% of control) A7r5: 43 % of control
[4]; 3.0 μg/ml
  Inhibition (% of control) A7r5: 87 % of control
[5]; [11]
  % PAS(+) cells of total epithelial cells: 12.34 ± 1.39%
[5]; [12]
  % PAS(+) cells of total epithelial cells: 9.49 ± 1.08%
[5]; [13]
  % PAS(+) cells of total epithelial cells: 5.02 ± 0.75%
[6]
  MAX: Contraction at maximal Ach concentration relative to control: 85 ± 16
  ED50: −log M acetylcholine (Ach) causing 50% contraction relative to control: 4.64 ± 0.34 −log M
  Tracheal hyper-reactivity to acetylcholine after ovalbumin challenge: brought this elevation back to control level

## CNC(=O)N1N=C(c2ccc(N)cc2)c2cc3c(cc2CC1C)OCO3 (single isomer, unassigned; (-)) [GYKI-53784, (−)-1-(4-Aminophenyl)-3-methylcarbamoyl-4-methyl-7,8-methylenedioxy-3,4-dihydro-5H-2,3-benzodiazepine]
AMPA receptors; AMPA (200 μM) + 53784 (200 μM), AMPA alone 14.8, control 6.6
  W/D: Ratio of wet and dry weight of lungs after 60-minute perfusion: 14.3 ± 5.6 (4)
AMPA receptors; AMPA (200 μM) + 53784 (200 μM), AMPA alone 147.9, control 96.0
  PAP: Pulmonary artery pressure after 60 minutes perfusion as a percent of 0 minute pressure: 114.0 ± 23.0 (4) percent
AMPA receptors; AMPA (200 μM) + 53784 (200 μM), AMPA alone 183.4, control 99.3
  PAW: Airway pressure after 60 minute perfusion as a percent of 0 minute pressure: 110.3 ± 19.1 (4) percent
AMPA receptors; AMPA-treated perfused rat lung
  Effect on airway and pulmonary arterial pressures: decreased both the airway and the pulmonary arterial pressures

## Cc1onc(O)c1CC(N)C(=O)O (stereo not drawn) [AMPA, α-Amino-3-hydroxy-5-methyl-4-isoxazole propionate]
AMPA receptors; [14]
  PAP: Pulmonary artery pressure after 60 minutes perfusion as a percent of 0 minute pressure: 147.9 ± 8.6 (7) percent
  W/D: Ratio of wet and dry weight of lungs after 60-minute perfusion: 14.8 ± 3.9 (3)
AMPA receptors; AMPA (200 μM) alone in perfusate, SPRD rats, n in brackets
  PAW: Airway pressure after 60 minute perfusion as a percent of 0 minute pressure: 183.4 ± 15.6 (7) percent

## Cc1cn2c(n1)Cc1ccc(Cl)cc1C(c1ccc(N)cc1)=N2 [GYKI-47261]
[6]
  MAX: Contraction at maximal Ach concentration relative to control: 98 ± 13
  ED50: −log M acetylcholine (Ach) causing 50% contraction relative to control: 5.26 ± 0.30 −log M
  Tracheal hyper-reactivity to acetylcholine after ovalbumin challenge: brought this elevation back to control level

## CC1=NN=C(c2ccc(N)cc2)c2cc3c(cc2C1)OCO3 [GYKI-52466, 1-(4-Aminophenyl)-4-methyl-7,8-methylenedioxy-5H-2,3-benzodiazepine]
[3]
  Contraction caused by ET-1 in the isolated guinea pig trachea: dose-dependently inhibit the contraction
  Emax at 10 µM: 53 ± 7%
  Emax at 30 µM: 23 ± 9%
[5]; [11]
  % PAS(+) cells of total epithelial cells: 16.09 ± 1.82%
[5]; [12]
  % PAS(+) cells of total epithelial cells: 15.18 ± 1.68%
[5]; [13]
  % PAS(+) cells of total epithelial cells: 14.17 ± 1.59%
[6]
  MAX: Contraction at maximal Ach concentration relative to control: 135 ± 32
  ED50: −log M acetylcholine (Ach) causing 50% contraction relative to control: 5.60 ± 0.46 −log M
  Tracheal hyper-reactivity to acetylcholine after ovalbumin challenge: brought this elevation back to control level

## NS(=O)(=O)c1cccc2c1c([N+](=O)[O-])cc1[nH]c(=O)c(=O)[nH]c12 [NBQX, 2,3-Dihydroxy-6-nitro-7-sulphamoyi-benzo(f)quinoxaline]
[1]; 0.03 μg/ml
  Inhibition (% of control) RASMC: 1 % of control
[1]; 0.3 μg/ml
  Inhibition (% of control) RASMC: 5 % of control
[1]; 3.0 μg/ml
  Inhibition (% of control) RASMC: 94 % of control
[7]; local administration, statistically significant only at the highest applied dose
  Allergen-induced airways hypersensitivity: inhibits allergen-induced airways hypersensitivity in a dose-dependent manner
[7]; first dose column (dose number not given), challenged 6.70, control 5.68
  ED50: −log M acetylcholine (Ach) causing 50% contraction relative to control: 5.85 ± 0.59 −log M
[7]; first dose column (dose number not given), challenged 327, control 100
  MAX: Contraction at maximal Ach concentration relative to control: 308 ± 128
[7]; [9]
  ED50: −log M acetylcholine (Ach) causing 50% contraction relative to control: 5.20 ± 0.72 −log M
  MAX: Contraction at maximal Ach concentration relative to control: 108 ± 28
[7]; [15]
  ED50: −log M acetylcholine (Ach) causing 50% contraction relative to control: 3.44 ± 0.36 −log M
  MAX: Contraction at maximal Ach concentration relative to control: 60 ± 14
[8]; 0.15 mg/kg intraperitoneal, challenged 7.31, control 6.16
  ED50: −log M acetylcholine (Ach) causing 50% contraction relative to control: 6.29 ± 0.51 −log M
[8]; 0.15 mg/kg intraperitoneal, challenged 308, control 100
  MAX: Contraction at maximal Ach concentration relative to control: 178 ± 65
[8]; 1.5 mg/kg intraperitoneal
  ED50: −log M acetylcholine (Ach) causing 50% contraction relative to control: 4.98 ± 0.80 −log M
  MAX: Contraction at maximal Ach concentration relative to control: 115 ± 30
[8]; 15 mg/kg intraperitoneal
  ED50: −log M acetylcholine (Ach) causing 50% contraction relative to control: 5.11 ± 0.55 −log M
  MAX: Contraction at maximal Ach concentration relative to control: 125 ± 32
[8]; intraperitoneal, dose-dependent
  Allergen-induced airways hypersensitivity, ED50 and maximal provoked response: strongly inhibits both parameters
